Assay results: ChEMBL document CHEMBL4725366, “Expanding the scope of synthetic 1,2,4-trioxanes towards Trypanosoma cruzi and Leishmania donovani” (Bioorg Med Chem Lett, 2020)

Key:
[1] = tested on: Leishmania donovani; assay: Antileishmanial activity against Leishmania donovani promastigotes; format: functional, organism-based
[2] = Selectivity index, ratio of CC50 for African green monkey Vero cells to IC50 for Leishmania donovani promastigotes; format: toxicity; conditions: read-out: Ratio CC50/IC50
[3] = tested on: Trypanosoma cruzi; assay: Antitrypanosomal activity against Trypanosoma cruzi epimastigotes; format: functional, organism-based
[4] = tested on: Trypanosoma cruzi; assay: Antitrypanosomal activity against Trypanosoma cruzi trypomastigotes; format: functional, organism-based
[5] = Selectivity index, ratio of CC50 for African green monkey Vero cells to IC50 for Trypanosoma cruzi trypomastigotes; format: toxicity; conditions: read-out: Ratio CC50/IC50
[6] = tested on: Leishmania donovani; assay: Potency index, ratio of Artemisinin IC50 to test compound IC50 for antileishmanial activity against Leishmania donovani promastigotes; format: functional
[7] = tested on: Vero; assay: Cytotoxicity against African green monkey Vero cells up to 4.76 ug/ml by neutral red assay; format: cell-based; conditions: chlorocebus sabaeus, dose <=4.76 µg/ml
[8] = tested on: Trypanosoma cruzi; assay: Trypanocidal activity against Trypanosoma cruzi epimastigotes at 100 uM measured after 24 hrs; format: functional
[9] = Selectivity index, ratio of CC50 for African green monkey Vero cells to IC50 for Trypanosoma cruzi epimastigotes; format: toxicity; conditions: read-out: Ratio CC50/IC50
[10] = tested on: Trypanosoma cruzi; assay: Potency index, ratio of artesunate IC50 to test compound IC50 for antitrypanosomal activity against Trypanosoma cruzi trypomastigotes; format: functional
[11] = tested on: Trypanosoma cruzi; assay: Potency index, ratio of benznidazole IC50 to test compound IC50 for antitrypanosomal activity against Trypanosoma cruzi trypomastigotes; format: functional
[12] = Cytotoxicity against African green monkey Vero cells by neutral red assay; format: cell-based; conditions: chlorocebus sabaeus

SMILES: CC(=O)CCCC(C)(C)C(=O)/C=C/C(=O)/C=C/c1ccc(C(=O)NCc2ccccc2)cc1
- IC50 [1]: 5.39 µM
- IC90 [1]: 13.5 µM
- selectivity ratio [2]: 1.98
- IC50 [3]: > 100000 nM
- IC50 [4]: 10.2 µM
- selectivity ratio [5]: ≥ 1.05
- Ratio IC50 [6]: >10

SMILES: COC(=O)c1ccc(/C=C/[C@]23C=C[C@@]4(OO2)C(C)(C)CCC(OC(C)=O)[C@]4(C)O3)cc1 (mixture of isomers)
- IC50 [1]: 7.01 µM
- IC90 [1]: 15.2 µM
- selectivity ratio [2]: 1.59
- Ratio IC50 [6]: >10
- Activity [7]: Non-Toxic

SMILES: CC1(C)CCC[C@]2(C)O[C@@]3(/C=C/c4ccc(C(=O)NCc5ccccc5)cc4)C=C[C@@]12OO3 (racemic)
- IC50 [1]: 2.47 µM
- IC90 [1]: 15.7 µM
- selectivity ratio [2]: 4.33
- Activity [8]: 100%
- IC50 [3]: 2480 nM
- selectivity ratio [9]: ≥ 4.3
- IC50 [4]: 1.16 µM
- selectivity ratio [5]: ≥ 9.21
- Ratio IC50 [6]: >10
- Ratio IC50 [10]: 10
- Ratio IC50 [11]: 13
- CC50 [12]: > 10.7 µM

SMILES: CC1(C)CC[C@H](O)[C@]2(C)O[C@@]3(/C=C/c4ccc(C(=O)NCc5ccccc5)cc4)C=C[C@@]12OO3 (racemic)
- IC50 [1]: 3.47 µM
- IC90 [1]: 5.42 µM
- selectivity ratio [2]: 2.69
- Ratio IC50 [6]: >10
- CC50 [12]: ≥ 9.33 µM

SMILES: CC1(C)CC[C@@H](O)[C@]2(C)O[C@@]3(C)C=C[C@@]12OO3 (racemic)
- IC50 [1]: > 100 µM
- IC90 [1]: > 100 µM

SMILES: CC1(C)CC=C[C@]2(C)O[C@@]3(C)C=C[C@@]12OO3 (racemic)
- IC50 [1]: > 100 µM
- IC90 [1]: > 100 µM

SMILES: CC1(C)CC=C[C@]2(C)O[C@@]3(C)CC[C@@]12OO3 (racemic)
- IC50 [1]: > 100 µM
- IC90 [1]: > 100 µM

SMILES: CC1(C)CCC(=O)[C@]2(C)O[C@@]3(C)C=C[C@@]12OO3 (racemic)
- IC50 [1]: > 100 µM
- IC90 [1]: > 100 µM

SMILES: CC1(C)CC[C@@H](O)[C@]2(C)O[C@@]3(C)CC[C@@]12OO3 (racemic)
- IC50 [1]: > 100 µM
- IC90 [1]: > 100 µM

SMILES: CC1(C)CC[C@@H](O)[C@]2(C)O[C@@]3(/C=C/c4ccc(C(=O)NCc5ccccc5)cc4)C=C[C@@]12OO3 (racemic)
- IC50 [1]: 7.59 µM
- IC90 [1]: 15.2 µM
- selectivity ratio [2]: 1.36
- Activity [8]: 100%
- IC50 [3]: 2660 nM
- selectivity ratio [9]: ≥ 3.88
- IC50 [4]: 0.62 µM
- selectivity ratio [5]: ≥ 16.6
- Ratio IC50 [6]: >10
- Ratio IC50 [10]: 20
- Ratio IC50 [11]: 13
- Activity [7]: Non-Toxic

SMILES: CC(=O)O[C@H]1CCC(C)(C)[C@@]23C=C[C@@](C)(OO2)O[C@@]13C (racemic)
- IC50 [1]: > 100 µM
- IC90 [1]: > 100 µM

SMILES: CC1(C)CCC[C@]2(C)O[C@@]3(C)C=C[C@@]12OO3 (racemic)
- IC50 [1]: > 100 µM
- IC90 [1]: > 100 µM

SMILES: CC1(C)CC[C@H](O)[C@]2(C)O[C@@]3(C)C=C[C@@]12OO3 (racemic)
- IC50 [1]: > 100 µM
- IC90 [1]: > 100 µM

SMILES: CC(=O)O[C@@H]1CCC(C)(C)[C@@]23CC[C@@](C)(OO2)O[C@@]13C (racemic)
- IC50 [1]: > 100 µM
- IC90 [1]: > 100 µM

SMILES: CC1(C)CCC(=O)[C@]2(C)O[C@@]3(C)CC[C@@]12OO3 (racemic)
- IC50 [1]: > 100 µM
- IC90 [1]: > 100 µM

SMILES: COC(=O)c1ccc(/C=C/[C@]23C=C[C@@]4(OO2)C(C)(C)CCC[C@]4(C)O3)cc1 (racemic)
- IC50 [1]: 8.38 µM
- IC90 [1]: 18.9 µM
- selectivity ratio [2]: 1.54
- Activity [8]: 100%
- IC50 [3]: 2270 nM
- selectivity ratio [9]: ≥ 5.56
- IC50 [4]: 0.84 µM
- selectivity ratio [5]: ≥ 15.3
- Ratio IC50 [6]: >10
- Ratio IC50 [10]: 10
- Ratio IC50 [11]: 13
- CC50 [12]: > 12.8 µM

SMILES: CC1(C)CC[C@H](O)[C@]2(C)O[C@@]3(C)CC[C@@]12OO3 (racemic)
- IC50 [1]: > 100 µM
- IC90 [1]: > 100 µM

SMILES: COC(=O)c1ccc(/C=C/[C@]23C=C[C@@]4(OO2)C(C)(C)CC[C@@H](O)[C@]4(C)O3)cc1 (racemic)
- IC50 [1]: 5.18 µM
- IC90 [1]: 15.5 µM
- selectivity ratio [2]: 2.38
- Ratio IC50 [6]: >10
- CC50 [12]: > 11.1 µM

SMILES: CC(=O)O[C@@H]1CCC(C)(C)[C@@]23C=C[C@@](C)(OO2)O[C@@]13C (racemic)
- IC50 [1]: > 100 µM
- IC90 [1]: > 100 µM

SMILES: C[C@@H]1[C@H](O)[C@@H](C)/C=C/C=C/C=C/C=C/C=C/C=C/C=C/[C@H](O[C@@H]2O[C@H](C)[C@@H](O)[C@H](N)[C@@H]2O)C[C@@H]2O[C@](O)(C[C@@H](O)C[C@@H](O)[C@H](O)CC[C@@H](O)C[C@@H](O)CC(=O)O[C@H]1C)C[C@H](O)[C@H]2C(=O)O [AMPHOTERICIN B]
- IC50 [1]: 0.19 µM
- IC90 [1]: 0.41 µM

SMILES: C[C@@H]1CC[C@H]2[C@@H](C)C(=O)O[C@@H]3O[C@@]4(C)CC[C@@H]1[C@]32OO4 [ARTEMISININ]
- IC50 [1]: > 100 µM

SMILES: C[C@H]1[C@H](OC(=O)CCC(=O)O)O[C@@H]2O[C@@]3(C)CC[C@H]4[C@H](C)CC[C@@H]1[C@@]24OO3 [ARTESUNATE]
- IC50 [1]: 12.1 µM
- IC50 [3]: 9440 nM
- IC50 [4]: 13 µM

SMILES: O=C(Cn1ccnc1[N+](=O)[O-])NCc1ccccc1 [BENZNIDAZOLE]
- IC50 [3]: 32500 nM
- IC50 [4]: 14.9 µM

SMILES: N=C(N)c1ccc(OCCCCCOc2ccc(C(=N)N)cc2)cc1 [PENTAMIDINE]
- IC90 [1]: 5.29 µM
